According to patent US10722563B2, “Prostate-specific tumor antigens and uses thereof” (SHENZHEN INNOVATION IMMUNOTECHNOLOGY CO., LTD., priority 2012, dated 2020):

Legend:
Format in all cases: cell-based, human
[1] = tested on: PBMCs of ten HLA-A2+ healthy subjects; experiment: In vitro stimulation of peptide-specific T cells in PBMCs of healthy subjects, IFN-γ release by ELISA; conditions: for healthy subjects in which the peptide induced T cell responses: 10 HLA-A2+ healthy donors, IFN-γ ELISA after 2 weeks of peptide stimulation; for concentrations of IFN-γ in the supernatants: PBMCs stimulated 14 days with peptide 20 μg/mL, response to T2 cells pre-loaded with peptide 5 μg/mL
Method: (§1) Ten HLA-A2+ prostate cancer patients and ten HLA-A2+ healthy subjects were enrolled in this study after written informed consent was obtained. All protocols were approved by the Institutional Review Board (IRB) of Baylor College of Medicine before commencing studies. 20 mL of peripheral blood was obtained from each person, and peripheral blood mononuclear cells (PBMCs) were isolated by density gradient centrifugation using Lymphoprep (Nycomed Pharma AS; Oslo, Norway). The freshly isolated PBMCs were cryopreserved for later use in 1 mL freezing medium containing 90% FCS and 10% dimethyl sulfoxide (DMSO) at −140° C. The expression of HLA-A2 molecules on PBMCs obtained from cancer patients and healthy subjects was verified by flow cytometry with FITC-labeled HLA-A2 mAb BB7.2 (BD Pharmingen, San Diego, Calif., USA).
(§2) PBMCs (1×10^5 cells/well) from either healthy subjects or prostate cancer patients were incubated with standard peptide concentrations of 20 μg/mL per peptide in 96-well U-bottom microplates (BD, Franklin Lakes, N.J., USA) in 200 μL of T-cell medium (TCM), consisting of RPMI 1640 (Mediatech, Manassas, Va., USA), 10% human AB serum (Valley Biomedical, Winchester, USA), 50 μM of 2-mercaptoethanol, 100 U/mL of interleukin-2 (IL-2), and 0.1 mM MEM nonessential amino acid solution (Invitrogen, Grand Island, N.Y., USA). Half of the TCM was removed and replaced with fresh TCM containing peptides (20 μg/mL) every 5 days. After 14 days of culture, the cells were harvested and tested for their ability to produce IFN-γ in response to T2 cells (1×10^4 cells/well), which were pre-loaded with either PSGR peptide (5 μg/mL) or a control peptide (an irrelevant HL-A2 binding peptide: NLLTHVESL) as a negative control. After 18 hours of incubation, supernatants were collected, and IFN-γ release was determined by ELISA assay.
(§3) Cytokine release was measured by coating 96-well ELISA plates (Thermo Fisher Scientific; Rochester, N.Y., USA) with 1 μg/mL anti-human IFN-γ (Pierce Biotechnology; Rockford, Ill., USA) overnight at 4° C. The plate was washed six times with PBS containing 0.05% Tween-20 (wash solution) to remove unbound coating antibody, and blocked with 1% BSA/PBS at room temperature for 2 hrs. Afterwards, 50 μL supernatant was added to each well and incubated at room temperature for 1 hr, then 50 μL of 0.5 μg/mL biotinylated anti-human IFN-γ (Pierce Biotechnology; Rockford, Ill., USA) was added and plates were incubated for an additional 1 hr at room temperature. After incubation, plates were washed and incubated for 30 min with Poly-HRP-Streptavidin (Thermo Fisher Scientific; Rochester, N.Y., USA) diluted 1:5000 in PBS/1% BSA. Plates were washed and 100 μL of TMB substrate solution (Sigma-Aldrich Co.; St. Louis, Mo., USA) was added per well. The colorimetric reaction was stopped using 2N H2SO4 and plates were read at 450 nm using an ELISA plate reader.
To determine whether PSGR-reactive T cell precursors are present in healthy subjects, we obtained PBMCs from 10 HLA-A2+ healthy donors and stimulated them in vitro with each of the 21 PSGR-derived peptides containing HLA-A2-binding motif (Table 1). After 2 weeks of peptide stimulation, supernatants from peptide-stimulated T cells were analyzed by ELISA assay to detect IFN-γ release in response to T2 cells pulsed with or without corresponding peptides.

[2] = tested on: PBMCs of HLA-A2+ prostate cancer patients; experiment: In vitro stimulation of peptide-specific T cells in PBMCs of prostate cancer patients, IFN-γ release by ELISA; conditions: PBMCs stimulated in vitro with peptide; for induction of peptide-specific CTLs from PBMCs of prostate cancer patients: Table 3
Method: as §1, §2, §3
Since peptide-specific T cells against PSGR3, PSGR4 and PSGR14 were found in more than 70% of healthy subjects, we reasoned that CTL precursors that recognize these 3 peptides may also be high in PBMCs of prostate cancer patients. To test our hypothesis, we examined whether these three peptide candidates can induce peptide-specific CTLs from the PBMCs of HLA-A2+ prostate cancer patients. PBMCs from prostate cancer patients were collected and stimulated in vitro with PSGR3, PSGR4 or PSGR14 peptides.

LNCaP cells = experiment: Cytotoxicity of PSGR peptide-specific T cells by LDH assay against LNCaP; conditions: HLA-A2 positive, PSGR expressing LNCaP; T cells from healthy donors and patients; FIG. 2B
Method: The expression of PSGR mRNA in different cell lines was determined by RT-PCR (A). PSGR derived peptide-specific T cells were tested for cytotoxicity against both PC3 and LNCaP by the LDH assay (B). Data from B are plotted as means±SD. Results are representative of three independent experiments. *P<0.05, versus control.
Cells were stained with anti-CD8 and anti-IFN-γ, then analyzed on a FACScalibur machine (A). PSGR-derived peptide-specific T cells were co-incubated with LNCaP cells alone in medium, or with LNCaP cells in the presence of either anti-HLA-I mAb (W6/32), HLA-II mAb or a control mAb (anti-CD19 mAb). After 4 hours of incubation, the cytotoxicity against LNCaP was determined by the LDH assay (B). Data from B are plotted as means±SD. Results are representative of three independent experiments. *P<0.05, versus controls.
PSGR derived peptide-specific T cells were tested for cytotoxicity against both PC3 and LNCaP by a lactate dehydrogenase (LDH) assay (Promega; Madison, Wis., USA). The assay was performed in accordance with the manufacturer's instructions. LDH release was calculated based on the following formula: Cytotoxicity (%)=(Experimental−Effector Spontaneous−Target Spontaneous LDH release)/(Target Maximum−Target Spontaneous LDH release)×100.
Spontaneous release was determined by using the supernatant of the target cells alone or effector cells alone, and the maximum release was determined by using the supernatant of target cells incubated with a lysis solution included in LDH kit. To determine if T cell recognition is HLA-I restricted, anti-HLA-I, anti-HLA-II, or anti-CD19 mAb (all from ATCC, Manassas, Va., USA) were added into wells at the initiation of the culture.

Sequence: VILANIYLLV (PSGR14)
- healthy subjects in which the peptide induced T cell responses [1]: 7 out of 10
- concentrations of IFN-γ in the supernatants ([1]; healthy subject #1): 471 pg/mL
- concentrations of IFN-γ in the supernatants ([1]; healthy subject #2): 0 pg/mL
- concentrations of IFN-γ in the supernatants ([1]; healthy subject #3): 115 pg/mL
- concentrations of IFN-γ in the supernatants ([1]; healthy subject #4): 0 pg/mL
- concentrations of IFN-γ in the supernatants ([1]; healthy subject #5): 124 pg/mL
- concentrations of IFN-γ in the supernatants ([1]; healthy subject #6): 296 pg/mL
- concentrations of IFN-γ in the supernatants ([1]; healthy subject #7): 843 pg/mL
- concentrations of IFN-γ in the supernatants ([1]; healthy subject #8): 0 pg/mL
- concentrations of IFN-γ in the supernatants ([1]; healthy subject #9): 346 pg/mL
- concentrations of IFN-γ in the supernatants ([1]; healthy subject #10): 854 pg/mL
- induction of peptide-specific CTLs from PBMCs of prostate cancer patients [2]: indeed induced peptide-specific CTLs
- concentrations of IFN-γ in the supernatants ([2]; prostate cancer patient #2): 344 pg/mL
- concentrations of IFN-γ in the supernatants ([2]; prostate cancer patient #3): 116 pg/mL
- concentrations of IFN-γ in the supernatants ([2]; prostate cancer patient #12): 272 pg/mL
- concentrations of IFN-γ in the supernatants ([2]; prostate cancer patient #13): 23 pg/mL
- concentrations of IFN-γ in the supernatants ([2]; prostate cancer patient #14): 0 pg/mL
- concentrations of IFN-γ in the supernatants ([2]; prostate cancer patient #15): 24 pg/mL
- concentrations of IFN-γ in the supernatants ([2]; prostate cancer patient #16): 0 pg/mL
- concentrations of IFN-γ in the supernatants ([2]; prostate cancer patient #17): 100 pg/mL
- concentrations of IFN-γ in the supernatants ([2]; prostate cancer patient #22): 8 pg/mL
- concentrations of IFN-γ in the supernatants ([2]; prostate cancer patient #25): 11 pg/mL
- recognition and killing of LNCaP by peptide-specific T cells (LNCaP cells): could recognize and kill

Sequence: WLAFPLCSL (PSGR4)
- healthy subjects in which the peptide induced T cell responses [1]: 7 out of 10
- concentrations of IFN-γ in the supernatants ([1]; healthy subject #1): 302 pg/mL
- concentrations of IFN-γ in the supernatants ([1]; healthy subject #2): 152 pg/mL
- concentrations of IFN-γ in the supernatants ([1]; healthy subject #3): 457 pg/mL
- concentrations of IFN-γ in the supernatants ([1]; healthy subject #4): 0 pg/mL
- concentrations of IFN-γ in the supernatants ([1]; healthy subject #5): 407 pg/mL
- concentrations of IFN-γ in the supernatants ([1]; healthy subject #6): 226 pg/mL
- concentrations of IFN-γ in the supernatants ([1]; healthy subject #7): 847 pg/mL
- concentrations of IFN-γ in the supernatants ([1]; healthy subject #8): 0 pg/mL
- concentrations of IFN-γ in the supernatants ([1]; healthy subject #9): 0 pg/mL
- concentrations of IFN-γ in the supernatants ([1]; healthy subject #10): 459 pg/mL
- induction of peptide-specific CTLs from PBMCs of prostate cancer patients [2]: indeed induced peptide-specific CTLs
- concentrations of IFN-γ in the supernatants ([2]; prostate cancer patient #2): 451 pg/mL
- concentrations of IFN-γ in the supernatants ([2]; prostate cancer patient #3): 351 pg/mL
- concentrations of IFN-γ in the supernatants ([2]; prostate cancer patient #12): 0 pg/mL
- concentrations of IFN-γ in the supernatants ([2]; prostate cancer patient #13): 301 pg/mL
- concentrations of IFN-γ in the supernatants ([2]; prostate cancer patient #14): 309 pg/mL
- concentrations of IFN-γ in the supernatants ([2]; prostate cancer patient #15): 70 pg/mL
- concentrations of IFN-γ in the supernatants ([2]; prostate cancer patient #16): 6.7 pg/mL
- concentrations of IFN-γ in the supernatants ([2]; prostate cancer patient #17): 102 pg/mL
- concentrations of IFN-γ in the supernatants ([2]; prostate cancer patient #22): 56 pg/mL
- concentrations of IFN-γ in the supernatants ([2]; prostate cancer patient #25): 27 pg/mL
- recognition and killing of LNCaP by peptide-specific T cells (LNCaP cells): could recognize and kill

Sequence: ILANIYLLV (PSGR3)
- healthy subjects in which the peptide induced T cell responses [1]: 7 out of 10
- concentrations of IFN-γ in the supernatants ([1]; healthy subject #1): 127 pg/mL
- concentrations of IFN-γ in the supernatants ([1]; healthy subject #2): 398 pg/mL
- concentrations of IFN-γ in the supernatants ([1]; healthy subject #3): 393 pg/mL
- concentrations of IFN-γ in the supernatants ([1]; healthy subject #4): 768 pg/mL
- concentrations of IFN-γ in the supernatants ([1]; healthy subject #5): 227 pg/mL
- concentrations of IFN-γ in the supernatants ([1]; healthy subject #6): 183 pg/mL
- concentrations of IFN-γ in the supernatants ([1]; healthy subject #7): 645 pg/mL
- concentrations of IFN-γ in the supernatants ([1]; healthy subject #8): 0 pg/mL
- concentrations of IFN-γ in the supernatants ([1]; healthy subject #9): 394 pg/mL
- concentrations of IFN-γ in the supernatants ([1]; healthy subject #10): 0 pg/mL
- induction of peptide-specific CTLs from PBMCs of prostate cancer patients [2]: indeed induced peptide-specific CTLs
- concentrations of IFN-γ in the supernatants ([2]; prostate cancer patient #2): 525 pg/mL
- concentrations of IFN-γ in the supernatants ([2]; prostate cancer patient #3): 503 pg/mL
- concentrations of IFN-γ in the supernatants ([2]; prostate cancer patient #12): 326 pg/mL
- concentrations of IFN-γ in the supernatants ([2]; prostate cancer patient #13): 217 pg/mL
- concentrations of IFN-γ in the supernatants ([2]; prostate cancer patient #14): 0 pg/mL
- concentrations of IFN-γ in the supernatants ([2]; prostate cancer patient #15): 282 pg/mL
- concentrations of IFN-γ in the supernatants ([2]; prostate cancer patient #16): 35 pg/mL
- concentrations of IFN-γ in the supernatants ([2]; prostate cancer patient #17): 156 pg/mL
- concentrations of IFN-γ in the supernatants ([2]; prostate cancer patient #22): 103 pg/mL
- concentrations of IFN-γ in the supernatants ([2]; prostate cancer patient #25): 22 pg/mL
- recognition and killing of LNCaP by peptide-specific T cells (LNCaP cells): could recognize and kill
